Results from US10307425B2, “Compositions and methods for treating toxoplasmosis, cryptosporidiosis and other apicomplexan protozoan related diseases” (UNIVERSITY OF WASHINGTON, priority 2015, dated 2019).

molecular target: TgCDPK1 (Toxoplasma gondii, UniProt Q9BJF5); experiment: biochemical
Sequence (Q9BJF5 1-507): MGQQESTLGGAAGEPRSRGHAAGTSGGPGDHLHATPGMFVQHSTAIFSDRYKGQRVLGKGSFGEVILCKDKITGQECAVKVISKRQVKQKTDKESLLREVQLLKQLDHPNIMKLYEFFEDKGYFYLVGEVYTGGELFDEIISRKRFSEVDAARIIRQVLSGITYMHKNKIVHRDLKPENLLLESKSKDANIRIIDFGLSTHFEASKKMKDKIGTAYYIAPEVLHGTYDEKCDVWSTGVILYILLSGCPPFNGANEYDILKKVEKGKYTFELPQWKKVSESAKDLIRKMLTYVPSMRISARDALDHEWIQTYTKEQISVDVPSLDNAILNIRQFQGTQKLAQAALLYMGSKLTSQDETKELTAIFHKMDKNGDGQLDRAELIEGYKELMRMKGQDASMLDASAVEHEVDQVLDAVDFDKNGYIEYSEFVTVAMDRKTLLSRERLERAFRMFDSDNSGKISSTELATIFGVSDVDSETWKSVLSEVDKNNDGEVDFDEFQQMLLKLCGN

Point of comparison: `CN1CCC(C#N)(Cn2nc(-c3ccc4cc(OC5CC5)ccc4c3)c3c(N)ncnc32)CC1` [Example 83, 4-((4-amino-3-(6-cyclopropoxynaphthalen-2-yl)-1H-pyrazolo[3,4-d]pyrimidin-1-yl)methyl)-1-methylpiperidine-4-carbonitrile], IC50 3.5 nM. Against it:
- COCCOc1ccc2cc(-c3nn(CC(C)(C)C)c4ncnc(N)c34)ccc2n1 [Example 38, 3-(2-(2-methoxyethoxy)quinolin-6-yl)-1-neopentyl-1H-pyrazolo[3,4-d]pyrimidin-4-amine] — within 1.5-fold, 3.8 nM
- COC(=O)C(C)(C)Cn1nc(-c2ccc3nc(OC4CC4)ccc3c2)c2c(N)ncnc21 [Example 69, methyl 3-(4-amino-3-(2-cyclopropoxyquinolin-6-yl)-1H-pyrazolo[3,4-d]pyrimidin-1-yl)-2,2-dimethylpropanoate] — 12-fold higher, 43.2 nM
- CC(C)(O)Cn1cc(-c2ccc3cc(OC4CC4)ccc3c2)c2c(N)ncnc21 [Example 58, 1-(4-amino-5-(6-cyclopropoxynaphthalen-2-yl)-7H-pyrrolo[2,3-d]pyrimidin-7-yl)-2-methylpropan-2-ol] — 2.6-fold higher, 9.1 nM
- CC(C)(CO)Cn1nc(-c2ccc3nc(OCC(F)(F)F)ccc3c2)c2c(N)ncnc21 [Example 2, 3-(4-Amino-3-(2-(2,2,2-trifluoroethoxy)quinolin-6-yl)-1H-pyrazolo[3,4-d]pyrimidin-1-yl)-2,2-dimethylpropan-1-ol] — 4.9-fold higher, 17.2 nM
- Nc1ncnc2c1c(-c1ccc3nc(OC4CC4)ccc3c1)nn2CC1CNC1 [Example 40, 1-(azetidin-3-ylmethyl)-3-(2-cyclopropoxyquinolin-6-yl)-1H-pyrazolo[3,4-d]pyrimidin-4-amine] — 1.5-fold lower, 2.3 nM
- CCOc1ccc2cc(-c3nn(CC(C)(C)CO)c4ncnc(N)c34)ccc2n1 [Example 37, 3-(4-amino-3-(2-ethoxyquinolin-6-yl)-1H-pyrazolo[3,4-d]pyrimidin-1-yl)-2,2-dimethylpropan-1-ol] — 2.1-fold lower, 1.7 nM
- CCOc1ccc2cc(-c3nn(CC4(C#N)CCNCC4)c4ncnc(N)c34)ccc2n1 [Example 86, 4-((4-amino-3-(2-ethoxyquinolin-6-yl)-1H-pyrazolo[3,4-d]pyrimidin-1-yl)methyl)piperidine-4-carbonitrile] — 2.3-fold lower, 1.5 nM
- Nc1ncnc2c1c(-c1ccc3cc(OC4CC4)ccc3c1)nn2CC1(O)CCC1 [Example 59, 1-((4-amino-3-(6-cyclopropoxynaphthalen-2-yl)-1H-pyrazolo[3,4-d]pyrimidin-1-yl)methyl)cyclobutanol] — 2.5-fold higher, 8.6 nM
- CN1CCC(Cn2nc(-c3ccc4cc(OC(F)F)ccc4c3)c3c(N)ncnc32)CC1 [Example 95, 3-(6-(difluoromethoxy)naphthalen-2-yl)-1-((1-methylpiperidin-4-yl)methyl)-1H-pyrazolo[3,4-d]pyrimidin-4-amine] — 1.9-fold higher, 6.5 nM
- CCOc1ccc2cc(-c3nn(CC4(O)CCN(C)CC4)c4ncnc(N)c34)ccc2c1 [Example 71, 4-((4-amino-3-(6-ethoxynaphthalen-2-yl)-1H-pyrazolo[3,4-d]pyrimidin-1-yl)methyl)-1-methylpiperidin-4-ol] — 17-fold higher, 59.3 nM
- Nc1ncnc2c1c(-c1ccc3nc(OC4CC4)ccc3c1)nn2CC1(O)CCOCC1 [Example 62, 4-((4-amino-3-(2-cyclopropoxyquinolin-6-yl)-1H-pyrazolo[3,4-d]pyrimidin-1-yl)methyl)-tetrahydro-2H-pyran-4-ol] — 5.5-fold higher, 19.2 nM
- CCOc1ccc2cc(-c3nn(CC(=O)N4CCOCC4)c4ncnc(N)c34)ccc2c1 [Example 50, 2-(4-amino-3-(6-ethoxynaphthalen-2-yl)-1H-pyrazolo[3,4-d]pyrimidin-1-yl)-1-morpholinoethanone] — 12-fold higher, 42.9 nM
- COC(=O)C(C)(C)Cn1nc(-c2ccc3cc(OC4CC4)ccc3c2)c2c(N)ncnc21 [Example 68, methyl 3-(4-amino-3-(6-cyclopropoxynaphthalen-2-yl)-1H-pyrazolo[3,4-d]pyrimidin-1-yl)-2,2-dimethylpropanoate] — 2.8-fold higher, 9.7 nM
- CN1CCC(Cn2nc(-c3ccc4cc(OCC#N)ccc4c3)c3c(N)ncnc32)CC1 [Example 73, 2-((6-(4-amino-1-((1-methylpiperidin-4-yl)methyl)-1H-pyrazolo[3,4-d]pyrimidin-3-yl)naphthalen-2-yl)oxy)acetonitrile] — 21-fold higher, 73.8 nM
- Nc1ncnc2c1c(-c1ccc3nc(OC4CC4)ccc3c1)nn2CC(O)(C(F)(F)F)C(F)(F)F [Example 53, 2-((4-amino-3-(2-cyclopropoxyquinolin-6-yl)-1H-pyrazolo[3,4-d]pyrimidin-1-yl)methyl)-1,1,1,3,3,3-hexafluoropropan-2-ol] — 14-fold higher, 47.3 nM
- CCOc1ccc2cc(-c3nc(CC4CCN(C)CC4)n4ccnc(N)c34)ccc2c1 [Example 115, 1-(6-ethoxynaphthalen-2-yl)-3-((1-methylpiperidin-4-yl)methyl)imidazo[1,5-a]pyrazin-8-amine] — 5.3-fold higher, 18.6 nM
- CCOc1ccc2ccc(-c3nn(CC(C)C)c4ncnc(N)c34)cc2c1 [Example 47, 3-(7-ethoxynaphthalen-2-yl)-1-isobutyl-1H-pyrazolo[3,4-d]pyrimidin-4-amine] — 3.1-fold higher, 10.8 nM
- CN1CCC(O)(Cn2nc(-c3ccc4cc(OC5CC5)ccc4c3)c3c(N)ncnc32)CC1 [Example 79, 4-((4-amino-3-(6-cyclopropoxynaphthalen-2-yl)-1H-pyrazolo[3,4-d]pyrimidin-1-yl)methyl)-1-methylpiperidin-4-ol] — within 1.5-fold, 4.5 nM
- CN1CCC(O)(Cn2nc(-c3ccc4cc(OC(F)F)ccc4c3)c3c(N)ncnc32)CC1 [Example 99, 4-((4-amino-3-(6-(difluoromethoxy)naphthalen-2-yl)-1H-pyrazolo[3,4-d]pyrimidin-1-yl)methyl)-1-methylpiperidin-4-ol] — 10-fold higher, 35.8 nM
- CCOc1ccc2cc(-c3nn(C(C)C)c4ncnc(N)c34)ccc2n1 [Example 106, 3-(2-ethoxyquinolin-6-yl)-1-isopropyl-1H-pyrazolo[3,4-d]pyrimidin-4-amine] — 1.8-fold lower, 2 nM
- Nc1ncnc2c1c(-c1ccc3nc(OC4CC4)ccc3c1)nn2CC1(O)CCNCC1 [Example 82, 4-((4-amino-3-(2-cyclopropoxyquinolin-6-yl)-1H-pyrazolo[3,4-d]pyrimidin-1-yl)methyl)piperidin-4-ol] — 5-fold lower, 0.7 nM
- CN1CC(O)(Cn2nc(-c3ccc4cc(OC5CC5)ccc4c3)c3c(N)ncnc32)C1 [Example 91, 3-((4-amino-3-(6-cyclopropoxynaphthalen-2-yl)-1H-pyrazolo[3,4-d]pyrimidin-1-yl)methyl)-1-methylazetidin-3-ol] — within 1.5-fold, 3.8 nM
- COCc1ccc2cc(-c3nn(CC(O)(C(F)(F)F)C(F)(F)F)c4ncnc(N)c34)ccc2c1 [Example 52, 2-((4-amino-3-(6-(methoxymethyl)naphthalen-2-yl)-1H-pyrazolo[3,4-d]pyrimidin-1-yl)methyl)-1,1,1,3,3,3-hexafluoropropan-2-ol] — 24-fold higher, 84.2 nM
- CC(C)(O)Cn1nc(-c2ccc3cc(OCC#N)ccc3c2)c2c(N)ncnc21 [Example 88, 2-(6-(4-amino-1-(2-hydroxy-2-methylpropyl)-1H-pyrazolo[3,4-d]pyrimidin-3-yl)naphthalen-2-yloxy)acetonitrile] — 32-fold higher, 112 nM
- CN1CCC(Cn2nc(-c3ccc4cc(OC5COC5)ccc4c3)c3c(N)ncnc32)CC1 [Example 12, 1-((1-Methylpiperidin-4-yl)methyl)-3-(6-(oxetan-3-yloxy)naphthalen-2-yl)-1H-pyrazolo[3,4-d]pyrimidin-4-amine] — 3.1-fold higher, 10.7 nM
- CCOc1ccc2cc(-c3nn(CC4(C)COC4)c4ncnc(N)c34)ccc2c1 [Example 49, 3-(6-ethoxynaphthalen-2-yl)-1-((3-methyloxetan-3-yl)methyl)-1H-pyrazolo[3,4-d]pyrimidin-4-amine] — within 1.5-fold, 2.9 nM
- Nc1ncnc2c1c(-c1ccc3cc(OC(F)F)ccc3c1)nn2CC1(O)CCNCC1 [Example 98, 4-((4-amino-3-(6-(difluoromethoxy)naphthalen-2-yl)-1H-pyrazolo[3,4-d]pyrimidin-1-yl)methyl)piperidin-4-ol] — 2.1-fold higher, 7.5 nM
- CCOc1ccc2cc(-c3nn(CC4(O)CNC4)c4ncnc(N)c34)ccc2n1 [Example 93, 3-((4-amino-3-(2-ethoxyquinolin-6-yl)-1H-pyrazolo[3,4-d]pyrimidin-1-yl)methyl)azetidin-3-ol] — within 1.5-fold, 2.9 nM
- Nc1ncnc2c1c(-c1ccc3cc(OC4CC4)ccc3c1)nn2CC1(O)CCCC1 [Example 61, 1-((4-amino-3-(6-cyclopropoxynaphthalen-2-yl)-1H-pyrazolo[3,4-d]pyrimidin-1-yl)methyl)cyclopentanol] — 3.7-fold higher, 13 nM
- CC(C)(O)Cn1nc(-c2ccc3nc(OCC(F)(F)F)ccc3c2)c2c(N)ncnc21 [Example 46, 1-(4-amino-3-(2-(2,2,2-trifluoroethoxy)quinolin-6-yl)-1H-pyrazolo[3,4-d]pyrimidin-1-yl)-2-methylpropan-2-ol] — 5.2-fold higher, 18.3 nM
- CC(C)n1nc(-c2ccc3cc(OCCO)ccc3c2)c2c(N)ncnc21 [Example 118, 2-((6-(4-amino-1-isopropyl-1H-pyrazolo[3,4-d]pyrimidin-3-yl)naphthalen-2-yl)oxy)ethan-1-ol] — 1.8-fold higher, 6.2 nM
- Nc1ncnc2c1c(-c1ccc3nc(OC4CC4)ccc3c1)nn2CC1(CO)COC1 [Example 64, (3-((4-amino-3-(2-cyclopropoxyquinolin-6-yl)-1H-pyrazolo[3,4-d]pyrimidin-1-yl)methyl)oxetan-3-yl)methanol] — within 1.5-fold, 3.6 nM
- CC(C)n1nc(-c2ccc3cc(OCC(C)(C)O)ccc3c2)c2c(N)ncnc21 [Example 117, 1-((6-(4-amino-1-isopropyl-1H-pyrazolo[3,4-d]pyrimidin-3-yl)naphthalen-2-yl)oxy)-2-methylpropan-2-ol] — within 1.5-fold, 3 nM
- CCOc1ccc2cc(-c3nn(CC4(O)CCNCC4)c4ncnc(N)c34)ccc2n1 [Example 84, 4-((4-amino-3-(2-ethoxyquinolin-6-yl)-1H-pyrazolo[3,4-d]pyrimidin-1-yl)methyl)piperidin-4-ol] — within 1.5-fold, 4 nM
- CC(C)(F)Cn1nc(-c2ccc3cc(OC4CC4)ccc3c2)c2c(N)ncnc21 [Example 77, 3-(6-cyclopropoxynaphthalen-2-yl)-1-(2-fluoro-2-methylpropyl)-1H-pyrazolo[3,4-d]pyrimidin-4-amine] — 1.8-fold higher, 6.4 nM
- Nc1ncnc2c1c(-c1ccc3cc(OC4CC4)ccc3c1)nn2CC1(O)CCNCC1 [Example 78, 4-((4-amino-3-(6-cyclopropoxynaphthalen-2-yl)-1H-pyrazolo[3,4-d]pyrimidin-1-yl)methyl)piperidin-4-ol] — 5-fold lower, 0.7 nM
